Structures are written as SMILES.

The target of this assay is T1, HEK cells stably transfected with tetracycline inducible hNR1 and hNR2A (Homo sapiens, UniProt Q05586+Q12879).
T1 construct: expressed in transfected cells; host or cells: HEK cells, stably transfected, tetracycline/doxycycline inducible
In words: Assay 1: Cell-Based Assay, cytosolic calcium response to positive allosteric modulators (with 30 μM glycine and 300 nM L-glutamate, EC30). The following applies: Table 3; cytosolic calcium response, with 30 μM glycine and 300 nM L-glutamate (EC30); — = no plateau was reached. Put shortly: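 Cells induced 24 h with 7.5 μg mL^−1 doxycycline plus 500 μM (+)-ketamine, loaded 60 min at 37 °C with calcium dye in Mg-free HBSS (1.8 mM Ca, probenecid, 10 μM (+)-ketamine, pH 7.15). Peak RFU over 5 min after compound addition, scaled to 100 μM L-glutamate (100%) and 0 μM (0%); four-parameter Hill fit for EC50, max % if no plateau.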

T1 sequence (Q12879 23-1464, other chains not shown): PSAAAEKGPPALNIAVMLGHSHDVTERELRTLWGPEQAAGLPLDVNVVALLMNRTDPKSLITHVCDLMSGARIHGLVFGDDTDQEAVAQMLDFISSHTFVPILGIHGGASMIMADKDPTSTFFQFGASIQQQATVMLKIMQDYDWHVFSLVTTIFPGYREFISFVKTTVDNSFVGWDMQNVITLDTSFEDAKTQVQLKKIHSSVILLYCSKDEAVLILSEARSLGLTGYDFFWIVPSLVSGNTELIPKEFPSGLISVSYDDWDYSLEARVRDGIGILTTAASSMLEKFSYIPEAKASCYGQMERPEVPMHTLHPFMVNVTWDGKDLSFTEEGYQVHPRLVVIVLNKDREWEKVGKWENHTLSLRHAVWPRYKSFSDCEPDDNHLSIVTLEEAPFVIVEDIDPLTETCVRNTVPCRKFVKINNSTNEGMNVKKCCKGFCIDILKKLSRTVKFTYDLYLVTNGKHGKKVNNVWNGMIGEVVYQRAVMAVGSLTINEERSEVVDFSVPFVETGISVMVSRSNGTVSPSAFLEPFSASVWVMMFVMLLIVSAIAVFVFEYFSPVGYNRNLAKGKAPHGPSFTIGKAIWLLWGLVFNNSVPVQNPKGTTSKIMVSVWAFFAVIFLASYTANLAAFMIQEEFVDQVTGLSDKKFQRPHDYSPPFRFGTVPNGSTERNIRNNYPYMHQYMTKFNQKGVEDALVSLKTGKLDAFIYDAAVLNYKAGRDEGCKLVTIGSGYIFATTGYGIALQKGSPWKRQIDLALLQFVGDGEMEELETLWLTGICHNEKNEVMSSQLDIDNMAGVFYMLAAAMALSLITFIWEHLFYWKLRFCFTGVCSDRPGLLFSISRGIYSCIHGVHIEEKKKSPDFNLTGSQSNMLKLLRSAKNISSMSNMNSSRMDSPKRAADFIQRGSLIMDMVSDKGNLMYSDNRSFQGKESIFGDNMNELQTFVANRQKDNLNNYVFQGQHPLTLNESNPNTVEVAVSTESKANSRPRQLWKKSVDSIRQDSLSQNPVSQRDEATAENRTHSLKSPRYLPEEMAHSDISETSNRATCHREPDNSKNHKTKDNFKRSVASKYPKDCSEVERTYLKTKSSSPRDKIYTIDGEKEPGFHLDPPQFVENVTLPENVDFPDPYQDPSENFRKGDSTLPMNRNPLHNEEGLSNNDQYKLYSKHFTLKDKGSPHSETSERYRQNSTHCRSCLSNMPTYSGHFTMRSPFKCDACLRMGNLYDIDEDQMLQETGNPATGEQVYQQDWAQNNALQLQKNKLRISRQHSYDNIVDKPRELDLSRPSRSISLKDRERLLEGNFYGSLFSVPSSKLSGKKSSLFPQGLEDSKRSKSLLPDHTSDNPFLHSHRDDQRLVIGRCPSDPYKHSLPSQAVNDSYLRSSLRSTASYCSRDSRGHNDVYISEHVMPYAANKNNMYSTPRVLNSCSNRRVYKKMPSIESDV

What is called EC50 is the concentration that produces a half-maximal response. In the case of `COc1sc2nc(Cn3nc(Cl)cc3C(F)(F)F)cc(=O)n2c1Cl` [compound 218, 3-chloro-7-[[3-chloro-5-(trifluoromethyl)pyrazol-1-yl]methyl]-2-methoxy-thiazolo[3,2-a]pyrimidin-5-one], the EC50 came out at 83 µM.
In the case of `CSc1c(C(F)(F)F)sc2nc(Cn3nc(C(F)(F)F)cc3Cl)cc(=O)n12` [compound 219, 7-[[5-chloro-3-(trifluoromethyl)pyrazol-1-yl]methyl]-3-methylsulfanyl-2-(trifluoromethyl)thiazolo[3,2-a]pyrimidin-5-one], the EC50 is 10.5 µM.
As for `CCN(Cc1cc(=O)n2c(C3CC3(C#N)CO)csc2n1)c1ccc(F)cc1` (stereo not drawn) [compound 220, 2-[7-[(N-Ethyl-4-fluoro-anilino)methyl]-5-oxo-thiazolo[3,2-a]pyrimidin-3-yl]-1-(hydroxymethyl)cyclopropanecarbonitrile], the figure is 47 µM; as for `Cc1sc2nc(Cn3nc(C(F)(F)F)cc3Cl)cc(=O)n2c1CC1CC1` [compound 221, 7-[[5-chloro-3-(trifluoromethyl)pyrazol-1-yl]methyl]-3-(cyclopropylmethyl)-2-methyl-thiazolo[3,2-a]pyrimidin-5-one], 3.76 µM; as for `Cc1sc2nc(Cn3nc(C(F)(F)F)cc3Cl)cc(=O)n2c1C(C)CO` (stereo not drawn) [compound 222, 7-[[5-Chloro-3-(trifluoromethyl)pyrazol-1-yl]methyl]-3-(2-hydroxy-1-methyl-ethyl)-2-methyl-thiazolo[3,2-a]pyrimidin-5-one], 2.92 µM.
Regarding `Cc1sc2nc(Cn3nc(Cl)cc3C(F)(F)F)cc(=O)n2c1C(C)CO` (stereo not drawn) [compound 223, 7-[[3-chloro-5-(trifluoromethyl)pyrazol-1-yl]methyl]-3-(2-hydroxy-1-methyl-ethyl)-2-methyl-thiazolo[3,2-a]pyrimidin-5-one], the EC50 worked out at 10.9 µM.
For the compound `Cc1sc2nc(Cn3nc(C(F)(F)F)cc3Cl)cc(=O)n2c1C(=O)C1CC1` [compound 224, 7-[[5-chloro-3-(trifluoromethyl)pyrazol-1-yl]methyl]-3-(cyclopropanecarbonyl)-2-methyl-thiazolo[3,2-a]pyrimidin-5-one], the EC50 came to 0.366 µM.
For the compound `O=c1cc(Cn2nc(C(F)(F)F)cc2Cl)nc2scc(Br)n12` [compound 225, 3-bromo-7-[[5-chloro-3-(trifluoromethyl)pyrazol-1-yl]methyl]thiazolo[3,2-a]pyrimidin-5-one], the 50% effective concentration (EC50) was 8.69 µM.
Take `O=c1cc(Cn2nc(Cl)cc2C(F)(F)F)nc2scc(Br)n12` [compound 226, 3-bromo-7-[[3-chloro-5-(trifluoromethyl)pyrazol-1-yl]methyl]thiazolo[3,2-a]pyrimidin-5-one]: the EC50 worked out at 1.42 µM.
Consider `Cc1sc2nc(Cn3nc(N)cc3Cl)cc(=O)n2c1Br` [compound 227, 7-[(3-amino-5-chloro-pyrazol-1-yl)methyl]-3-bromo-2-methyl-thiazolo[3,2-a]pyrimidin-5-one], for which the half-maximal effective concentration (EC50) is 13 µM.
In the case of `Cc1sc2nc(Cn3nc(Cl)cc3N)cc(=O)n2c1Br` [compound 228, 7-[(5-amino-3-chloro-pyrazol-1-yl)methyl]-3-bromo-2-methyl-thiazolo[3,2-a]pyrimidin-5-one], the EC50 amounted to 32.2 µM.
The value for `Cc1sc2nc(Cn3nc(C(F)(F)F)cc3Cl)cc(=O)n2c1CC#N` [compound 229, 2-[7-[[5-chloro-3-(trifluoromethyl)pyrazol-1-yl]methyl]-2-methyl-5-oxo-thiazolo[3,2-a]pyrimidin-3-yl]acetonitrile] was 6.46 µM; that for `CCNC(=O)c1c(C(F)(F)F)sc2nc(CN(C)c3ccc(F)cn3)cc(=O)n12` [compound 230, N-ethyl-7-[[(5-fluoro-2-pyridyl)-methyl-amino]methyl]-5-oxo-2-(trifluoromethyl)thiazolo[3,2-a]pyrimidine-3-carboxamide] was 6.86 µM; that for `O=c1cc(Cn2nc(C(F)(F)F)cc2Cl)nc2sc(C(F)(F)F)c(N3CC(F)(F)C3)n12` [compound 231, 7-[[5-chloro-3-(trifluoromethyl)pyrazol-1-yl]methyl]-3-(3,3-difluoroazetidin-1-yl)-2-(trifluoromethyl)thiazolo[3,2-a]pyrimidin-5-one] was 61.3 µM.
As for `COc1sc2nc(Cn3nc(C(F)(F)F)cc3Cl)cc(=O)n2c1-c1cccnc1` [compound 233, 7-[[5-chloro-3-(trifluoromethyl)pyrazol-1-yl]methyl]-2-methoxy-3-(3-pyridyl)thiazolo[3,2-a]pyrimidin-5-one], the figure is 6.14 µM.
As for `Cc1sc2nc(Cn3nc(C(F)(F)F)cc3Br)cc(=O)n2c1C1CC1C#N` (stereo not drawn) [compound 234, 2-[7-[[5-bromo-3-(trifluoromethyl)pyrazol-1-yl]methyl]-2-methyl-5-oxo-thiazolo[3,2-a]pyrimidin-3-yl]cyclopropanecarbonitrile], the figure is 0.0342 µM; as for `O=c1cc(Cn2nc(C(F)(F)F)cc2Cl)nc2scc(Cl)n12` [compound 235, 3-chloro-7-[[5-chloro-3-(trifluoromethyl)pyrazol-1-yl]methyl]thiazolo[3,2-a]pyrimidin-5-one], 21.2 µM.
Take `O=c1cc(Cn2nc(Cl)cc2C(F)(F)F)nc2scc(Cl)n12` [compound 236, 3-chloro-7-[[3-chloro-5-(trifluoromethyl)pyrazol-1-yl]methyl]thiazolo[3,2-a]pyrimidin-5-one]: the EC50 amounted to 44.5 µM.
In the case of `CCNC(=O)c1c(C(C)=O)sc2nc(Cn3nc(C(F)(F)F)cc3Cl)cc(=O)n12` [compound 237, 2-acetyl-7-[[5-chloro-3-(trifluoromethyl)pyrazol-1-yl]methyl]-N-ethyl-5-oxo-thiazolo[3,2-a]pyrimidine-3-carboxamide], the concentration giving a half-maximal response (EC50) was determined as 0.889 µM.
Turning to `CCNC(=O)c1c(C(C)=O)sc2nc(Cn3nc(Cl)cc3C(F)(F)F)cc(=O)n12` [compound 238, 2-acetyl-7-[[3-chloro-5-(trifluoromethyl)pyrazol-1-yl]methyl]-N-ethyl-5-oxo-thiazolo[3,2-a]pyrimidine-3-carboxamide], the EC50 was 2.32 µM.
As to `O=c1cc(Cn2nc(C(F)(F)F)cc2Cl)nc2scc(C(F)(F)F)n12` [compound 239, 7-[[5-chloro-3-(trifluoromethyl)pyrazol-1-yl]methyl]-3-(trifluoromethyl)thiazolo[3,2-a]pyrimidin-5-one], the EC50 stood at 14.2 µM.
Take `Cc1sc2nc(Cc3cccc(C(F)(F)F)c3F)cc(=O)n2c1-c1ncn[nH]1` [compound 240, 7-[[2-Fluoro-3-(trifluoromethyl)phenyl]methyl]-2-methyl-3-(1H-1,2,4-triazol-5-yl)thiazolo[3,2-a]pyrimidin-5-one]: the EC50 was found to be 37.1 µM.
As for `N#CC1CC1c1csc2nc(Cn3nc(C(F)(F)F)cc3Cl)cc(=O)n12` (stereo not drawn) [compound 241, 2-[7-[[5-chloro-3-(trifluoromethyl)pyrazol-1-yl]methyl]-5-oxo-thiazolo[3,2-a]pyrimidin-3-yl]cyclopropanecarbonitrile], the figure is 0.313 µM; as for `CC(=O)c1csc2nc(Cn3nc(C(F)(F)F)cc3Cl)cc(=O)n12` [compound 242, 3-acetyl-7-[[5-chloro-3-(trifluoromethyl)pyrazol-1-yl]methyl]thiazolo[3,2-a]pyrimidin-5-one], 11.4 µM; as for `O=c1cc(Cn2nc(C(F)(F)F)cc2Cl)nc2sc(C(F)(F)F)c(OCC(F)(F)F)n12` [compound 243, 7-[[5-chloro-3-(trifluoromethyl)pyrazol-1-yl]methyl]-3-(2,2,2-trifluoroethoxy)-2-(trifluoromethyl)thiazolo[3,2-a]pyrimidin-5-one], 0.864 µM.
As for `COc1sc2nc(Cn3nc(C(F)(F)F)cc3Cl)cc(=O)n2c1C(C)=O` [compound 244, 3-Acetyl-7-[[5-chloro-3-(trifluoromethyl)pyrazol-1-yl]methyl]-2-methoxy-thiazolo[3,2-a]pyrimidin-5-one], the figure is 0.392 µM; as for `COc1sc2nc(Cn3nc(Cl)cc3C(F)(F)F)cc(=O)n2c1C(C)=O` [compound 245, 3-acetyl-7-[[3-chloro-5-(trifluoromethyl)pyrazol-1-yl]methyl]-2-methoxy-thiazolo[3,2-a]pyrimidin-5-one], 0.409 µM.
The value for `Cc1sc2nc(Cn3nc([N+](=O)[O-])cc3Cl)cc(=O)n2c1Br` [compound 246, 3-bromo-7-[(5-chloro-3-nitro-pyrazol-1-yl)methyl]-2-methyl-thiazolo[3,2-a]pyrimidin-5-one] was 0.0999 µM; that for `O=c1cc(Cn2nc(C(F)(F)F)cc2Cl)nc2sc(C(F)(F)F)c(-c3ccn[nH]3)n12` [compound 247, 7-[[5-chloro-3-(trifluoromethyl)pyrazol-1-yl]methyl]-3-(1H-pyrazol-5-yl)-2-(trifluoromethyl)thiazolo[3,2-a]pyrimidin-5-one] was 7.7 µM; that for `O=c1cc(Cn2nc(C(F)(F)F)cc2Cl)nc2sc(C(F)(F)F)c(-c3cscn3)n12` [compound 248, 7-[[5-chloro-3-(trifluoromethyl)pyrazol-1-yl]methyl]-3-thiazol-4-yl-2-(trifluoromethyl)thiazolo[3,2-a]pyrimidin-5-one] was 1.45 µM.
With `O=c1cc(Cn2nc(C(F)(F)F)cc2Cl)nc2sc(C(F)(F)F)c(-c3cncc(F)c3)n12` [compound 249, 7-[[5-chloro-3-(trifluoromethyl)pyrazol-1-yl]methyl]-3-(5-fluoro-3-pyridyl)-2-(trifluoromethyl)thiazolo[3,2-a]pyrimidin-5-one], the EC50 was 6.33 µM.
As for `CCC(=O)c1c(C(F)(F)F)sc2nc(Cn3nc(C(F)(F)F)cc3Cl)cc(=O)n12` [compound 250, 7-[[5-Chloro-3-(trifluoromethyl)pyrazol-1-yl]methyl]-3-propanoyl-2-(trifluoromethyl)thiazolo[3,2-a]pyrimidin-5-one], the figure is 13.8 µM.
Consider `Cc1sc2nc(Cn3nc(Cl)cc3Cl)cc(=O)n2c1C1CC1C#N` (stereo not drawn) [compound 251], for which the EC50 was found to be 0.42 µM.
